Measured values: US10517842B2, “Methods of modulating miRNA levels and compositions for use in the same” (Los Angeles Biomedical Research Institute at Harbor-UCLA …, priority 2017, dated 2019)

Columns and labels:
[1] = system: 3′UTR of COL3A1 in lung cancer cell line A549; assay: 3′UTR luciferase reporter assay in A549; type: cell-based; conditions: Tranilast
NF-kB = NF-kB luciferase reporter assay in LSMC; type: cell-based, human; conditions: Tranilast 200 μM, 48 hrs, vs DMSO set as 1
Experimental: The ratio of Firefly:Renilla was determined after treatment of Tranilast (200 μM) for 48 hrs and reported as relative luciferase activity as compared to DMSO which was independently set as 1. FIG. 13B: Graphical depiction of the NF-Kb (p65) binding elements in the miR-200c promoter. […] The results are presented as mean±SEM of at least three independent experiments using LSMC isolated from 3 patients.

caspase 3/7 = assay: Caspase-3/7 activity assay (Apo-One) in LSMC; type: cell-based, human; conditions: Tranilast 200 μM, 48 hrs
Experimental: LSMC were cultured in 96-well plates as mentioned above and at sub-confluence were treated with 200 μM Tranilast for 48 hrs. The caspase 3/7 activity was determined using the Apo-One homogeneous caspase-3/7 assay (Promega, Madison, Wis.) after the indicated time periods according to the manufacturer's protocol. The Apo-One caspase-3/7 reagent was added in a 1:1 ratio with the medium, and the rate of caspase-3/7 activity was determined by measuring the fluorescence using a multi-plate reader (Molecular Devices, Inc., Sunnyvale, Calif.) at an excitation of 485 nm and an emission of 527 nm.

[2] = system: leiomyoma smooth muscle cells (LSMC); assay: Cell proliferation assay (MTT); type: cell-based, human; conditions: Tranilast 100 to 400 μM, 48 hrs, dose-dependent, p<0.05
Text: Leiomyomas and matched myometrium (N=12) were collected from patients scheduled to undergo hysterectomy at Harbor-UCLA Medical Center with prior approval from Institutional Review Board (#036247). The tissues were either snap frozen and stored in liquid nitrogen for further analysis, or used for isolation of LSMC as previously described (Chuang et al., “miR-200c is aberrantly expressed in leiomyomas in an ethnic-dependent manner and targets ZEBs, VEGFA, TIMP2, and FBLN5,” Endocrine-related cancer (2012)19:541-56; Chuang et al., “miR-93/106b and their host gene, MCM7, are differentially expressed in leiomyomas and functionally target F3 and IL-8. Molecular endocrinology,” (2012) 26:1028-42). Briefly, LSMC were cultured in DMEM supplemented with 10% fetal bovine serum until reaching confluence with a change of media every 2-3 days. […]
LSMC were seeded at 1000 cells/well in 96-well plates and cultured for 48 hrs. […] The rate of cell proliferation was determined using the MTT assay and cells were photographed as previously described (Chuang & Khorram, “Mechanisms underlying aberrant expression of miR-29c in uterine leiomyoma,” Fertility and sterility (2016)105:236-45.e1; Chuang et al., “The Regulatory Function of miR-200c on Inflammatory and Cell-Cycle Associated Genes in SK-LMS-1, A Leiomyosarcoma Cell Line,” Reproductive sciences (2015) 22:563-71). […]

3′UTR fragment of IL8 = assay: 3′UTR luciferase reporter assay in LSMC; type: cell-based, human; conditions: Tranilast 200 μM vs DMSO
Experimental: FIG. 10A: The relative luciferase activity in LSMC treated with Tranilast (200 μM) or DMSO as control for 48 hrs prior to transfection with Renilla and Firefly luciferase reporter plasmids carrying a 3′UTR fragment of COL3A1, CDK2 or IL8 and incubated with Tranilast (200 μM) or DMSO containing medium after transfection for another 48 hrs. The relative luciferase activity is presented as the ratio of Firefly:Renilla as compared to DMSO which was independently set as 1. The results are presented as mean±SEM of at least three sets of independent experiments using LSMC isolated from 3 patients. FIG. 10B: Protein expression of COL3A1 and CDK2 was determined after transfection of anti-miR scrambled oligonucleotides (aNC) or anti-miR-29c oligonucleotides (a29c) in LSMC for 72 hrs with DMSO or Tranilast (200 μM) treatment for the last 48 hrs. GAPDH was used as loading control. The result is one representative of at least three sets of independent experiments using LSMC isolated from 3 patients. FIG. 10C: The bar graph presented the relative band densities as mean±SEM of at least three independent experiments. Inhibition of protein expression by Tranilast treatment was calculated relative to changes in corresponding DMSO controls in cells transfected with aNC or anti-miR-29c.

[3] = system: 3′UTR of CDK2 in lung cancer cell line A549; assay: 3′UTR luciferase reporter assay in A549; type: cell-based; conditions: Tranilast
3′UTR of CDK2 = assay: 3′UTR luciferase reporter assay in LSMC; type: cell-based, human; conditions: Tranilast 200 μM vs DMSO set as 1, 48 hrs before and 48 hrs after transfection, LSMC; P<0.05

NF-kB signaling (NF-kB luciferase reporter activity) (NF-kB): Blockade
Caspase 3/7 activity (caspase 3/7): without a significant effect
expression of IL8 (heading to FIG. 10A, 3′UTR reporter) (3′UTR fragment of IL8): Down-regulated
3′UTR activity of CDK2 (relative luciferase activity, Firefly:Renilla) (3′UTR of CDK2): suppressed
Compound: COc1ccc(C=CC(=O)Nc2ccccc2C(=O)O)cc1OC [Tranilast, 2-[[3-(3,4-dimethoxyphenyl)-1-oxo-2-propenyl]amino]benzoic acid]
activity of luciferase reporter containing 3′UTR of COL3A1 [1]: Inhibits
rate of LSMC cell proliferation [2]: significantly inhibited
activity of luciferase reporter containing 3′UTR of CDK2 [3]: Inhibits
